Measurements taken from US20080311589A1, “METHOD OF HIGH-THROUGHPUT SCREENING OF MOLECULES AND COMPOUNDS FOR THEIR EFFECTS ON BIOLOGICAL AND CHEMICAL PROCESSES” (priority 1999, published 2008).

Tests used:
[1] = test system: transiently transfected TGFβ-responsive reporter; assay: transient transfection luciferase assay, p3TPLux; assay type: cell-based, mink
Experimental: LUCIFERASE ASSAYS: Our transient transfection luciferase assay was described previously by us (Stockwell et al., Chem Biol 5:385, 1998). Briefly, 100,000 Mv1Lu mink lung epithelial cells were transiently transfected in 12-well dishes with 400 ng p3TPLux or pNFkB-Lux, with or without 50 ng pFC-MEKK, in 300 μL minimal essential medium with non-essential amino acids. The DEAE-dextran/chloroquine/DMSO methods was used for transfection (Stockwell et al., Chem Biol 6:71, 1999). After cell lysis in 120 μL lysis buffer, a Beckman LS 6500 liquid scintillation counter was used in single photon mode to quantitate luminescence. For detection of luciferase activity in 6F cells (including the primary screen), 20,000 6F cells were seeded in 50 μL of 10% mink medium in each well of a white 384-well plate (Nalge Nune International; Naperville, Ill.; cat#164610) using a Multidrop 384 liquid dispenser (Lab Systems; Helsinki, Finland). After 16 hours, medium was removed using a 24 channel wand (V&P Scientific, Inc.; San Diego, Calif.; cat#VP 186L), the cells were washed with 75 μL of 0.2% mink medium (containing 0.2% FBS), and reagents were added in 40 μL of 0.2% medium. For the primary screen, reagents were added by pin transfer using 384 polypropylene pin arrays (Matrix Technologies; Hudson, N.H.). After 24 hours, the cells were cooled on ice and washed twice with 75 μL Hanks Balanced Salt Solution (HBSS; GibcoBRL; cat#24020-117). Then 20 μL lysis buffer (25 mM glycylglycine (Sigma; cat#E-0396), 1% Triton X-100 (Sigma; cat#T-9284), 1 mM dithiothreitol (DTT; Sigma; cat#D-5545), 1 mM phenylmethylsulfonyl fluoride (PMSF; Sigma; cat#P-7626)) was added to each well with a Multidrop. After incubating the cells for five minutes on ice, 20 μL of ATP/luciferin solution was added (25 mM glycylglycine pH 7.8, 15 mM MgSO4, 4 mM EGTA, 6.25 mM K2HPO4 (Sigma; cat#P5504) pH 7.8, 5 mM DTT, 75 μM D-luciferin (Sigma, cat# L-9504, 2 mM ATP (Sigma; cat#A-7699)). Light output was immediately measured with an Analyst 384-well platereader (LJL), with 0.5 second counting time per well.

[2] = target: T1, recombinant Eg5 (Xenopus laevis, UniProt P28025); assay: Eg5 driven microtubule gliding in vitro; assay type: biochemical; settings: for reversibility of inhibition (washout): monastrol 200 μM, then washout
T1 sequence (P28025 1-1067): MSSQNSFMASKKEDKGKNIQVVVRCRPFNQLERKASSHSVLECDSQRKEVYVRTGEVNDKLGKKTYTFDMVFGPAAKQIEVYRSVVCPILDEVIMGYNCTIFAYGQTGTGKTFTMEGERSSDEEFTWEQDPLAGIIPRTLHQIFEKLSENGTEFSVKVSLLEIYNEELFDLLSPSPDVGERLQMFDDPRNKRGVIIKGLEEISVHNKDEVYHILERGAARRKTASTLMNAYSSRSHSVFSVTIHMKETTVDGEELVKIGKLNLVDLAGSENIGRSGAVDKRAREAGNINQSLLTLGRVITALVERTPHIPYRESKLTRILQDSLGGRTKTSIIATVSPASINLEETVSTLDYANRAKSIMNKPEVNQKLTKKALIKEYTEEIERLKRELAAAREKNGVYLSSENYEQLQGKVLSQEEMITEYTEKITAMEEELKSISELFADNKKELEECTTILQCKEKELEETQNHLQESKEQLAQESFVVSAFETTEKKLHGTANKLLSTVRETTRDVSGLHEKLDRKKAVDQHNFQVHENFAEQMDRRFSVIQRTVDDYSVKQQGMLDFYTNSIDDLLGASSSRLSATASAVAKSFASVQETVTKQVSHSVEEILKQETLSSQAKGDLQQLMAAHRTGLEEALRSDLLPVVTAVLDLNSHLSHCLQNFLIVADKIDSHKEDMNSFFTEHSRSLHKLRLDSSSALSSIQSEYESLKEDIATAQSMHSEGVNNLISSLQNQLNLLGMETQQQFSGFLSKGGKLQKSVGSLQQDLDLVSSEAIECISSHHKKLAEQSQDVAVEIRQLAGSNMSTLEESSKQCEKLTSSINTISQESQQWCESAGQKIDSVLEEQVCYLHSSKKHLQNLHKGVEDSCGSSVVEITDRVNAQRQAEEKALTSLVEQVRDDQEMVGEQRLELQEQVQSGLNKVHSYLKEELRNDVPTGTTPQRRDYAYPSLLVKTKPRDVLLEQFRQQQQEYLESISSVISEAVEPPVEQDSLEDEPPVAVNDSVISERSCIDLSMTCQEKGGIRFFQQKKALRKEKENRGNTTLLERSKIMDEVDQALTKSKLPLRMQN
Experimental: FIG. 26. […] Conventional kinesin motility was not inhibited in the same assay. A. Model for spindle bipolarity. Plus-end directed motors, such as Eg5 are thought to be involved in the separation of the centrosomes and the establishment of a symmetric spindle axis. B. Inhibition of the kinesin Eg5 results in monastrol spindles. Microtubules, green; chromosomes, blue. Eg5 is depicted as homotetramer (9). C. […] After imaging Eg5 driven microtubule gliding in the presence of monastrol (200 μM), the same assay chamber was depleted of compound and the microtubule gliding recorded (Washout). […] D. Chemical structures of monastrol and DHP2.
Mitotic kinesins have been implicated in anti-parallel overlap interactions (Walczak et al., Curr. Biol. 8:903, 1998). Inhibition of the tetrameric mitotic kinesin Eg5 with antibodies induced monoasters (Sawin et al., Nature 359:540, 1992; Blangy et al., Cell 83:125, 1995; Sharp et al., J. Cell Biol. 144:125, 1999). We therefore hypothesized that Eg5 might be a target of monastrol. Like other motile kinesins, Eg5 can drive in vitro microtubule gliding (Sawin et al., Nature 359:540, 1992; Kapoor et al., Proc. Natl. Acad. Sci. USA, 1999). We tested whether monastrol inhibits Eg5 motility in vitro. […] Microtubule attachment to the Eg5 coated coverslip was maintained in the presence of monastrol (FIG. 26C). […] To test whether inhibition of the Eg5 driven microtubule gliding is specific to monastrol, we tested the closely related compound DHP2 (FIG. 26D).

TGF-β: anti-mitogen transforming growth factor β, multifunctional polypeptide signaling factor
activation of transiently versus stably transfected TGFβ-responsive reporter [1]: equally effective

monastrol
IC50 [2]: 14 µM
IC50 (inhibitory concentration), Eg5 driven microtubule motility [2]: 14 µM
reversibility of inhibition (washout) [2]: reversible in vitro and in vivo
reversibility of inhibition (washout) ([2]; listed as Monastrol): reversible in vitro
